Data on 22 compounds can be found in US8278311B2, “Substituted pyrimidine derivatives” (Abbott Laboratories, priority 2008, dated 2012).

Test [1] concerns the target T1, histamine H4 receptor (Homo sapiens, UniProt Q9H3N8).
T1 construct: expressed in transfected cells
The experiment in a line: in vitro assay of histamine H4 activity using FLIPR-Ca+2 flux. The following applies: HEK-293 cells stably expressing histamine H4 receptor and Gαqi5, Fluo-4; Kb for antagonists and inverse agonists, EC50 for partial agonists. The test is classed as cell-based. An excerpt: There are many methods available to show the effectiveness of compounds as histamine H4 receptor ligands. Histamine H4 receptors from mammalian species have been cloned. Methods to clone, express, and assess the potency and functional activity of such cloned genes are well known to those skilled in the art of molecular biology. Examples of methods of cloning and expressing histamine H4 receptors, and of assessing the potency and functional activity are described in Nguyen, et al. Molecular Pharmacology (2001) vol. 59 pp. 427-433; Zhu, et al. Molecular Pharmacology (2001) vol. 59 pp. 434-441; Coge, et al., Biochemical and Biophysical Research Communications (2001) vol. 284, pp. 301-309; Liu, et al. Molecular Pharmacology (2001) vol. 59 pp. 420-426; Liu, et al. Journal of Pharmacology and Experimental Therapeutics (2001) v. 299, pp. 121-130; and Thurmond, et al. Journal of Pharmacology and Experimental Therapeutics (2004) v. 309, pp. 404-413. In the present case, to determine the potency and effectiveness of representative compounds of this invention as histamine-H4 receptor ligands (H4 receptor ligands), the following tests were conducted according to previously described methods (see Esbenshade, et al., Biochemical Pharmacology (2004), vol. 68, pp. 933-945, and in Krueger, et al., Journal of Pharmacology and Experimental Therapeutics (2005) v. 314, pp. 271-281): histamine H4 receptors were cloned and stably expressed in HEK-293 (human embryonic kidney) cells coexpressing a Gαqi5. Before testing, cells are loaded with a Ca+^2 sensitive fluorescent dye, in this case Fluo-4 (Invitrogen, Carlsbad, Calif.). In the case of partial agonist or agonist ligands, addition of compound to the cells leads to the increase in intracellular Ca^+2 which is detected by FLIPR (Fluorescence Imaging Plate Reader; Molecular Devices, Sunnyvale, Calif.) technology. In a similar manner, compounds that are antagonists or inverse agonists, block the increase in fluorescence induced by the full histamine H4 agonist histamine, and partial agonists reduce the amount of fluorescence induced by the full histamine H4 agonist histamine. The fluorescence intensities measured before addition of the test compound are subtracted from the fluorescence intensities at later time points. Peak response values determined at each concentration of ligand are expressed as a percentage of the response obtained with the full agonist histamine. Concentration versus response data are analyzed to obtain compound potency as Kb values for antagonists and inverse agonists and as EC50 values for partial agonists.

Test [2] addresses T1, histamine H4 receptor. Put plainly: 3H-histamine competition binding assay. As to the method:
The potency of compounds of the invention in displacing ^3H-histamine in competition binding assays is assessed by methods described in Esbenshade, et al., Biochemical Pharmacology (2004), vol. 68, pp. 933-945. In this assay, membranes were prepared from HEK-293 cells transiently transfected with the pClNeo expression vector harboring the histamine H4 receptor by homogenization of the cells on ice in TE buffer (50 mM Tris-HCl buffer, pH 7.4, containing 5 mM EDTA), 1 mM benzamidine, 2 μg/mL aprotinin, 1 μg/mL leupeptin, and 1 μg/mL pepstatin. The homogenate was centrifuged at 40,000 g for 20 minutes at 4° C. This step was repeated, and the resulting pellet was resuspended in TE buffer. Aliquots were frozen at −70° C. until needed. On the day of assay, membranes were thawed and diluted with TE buffer. Competition radioligand binding assays were performed with increasing concentrations of test compound in the presence of [^3H]-histamine incubated at 25° C. for 1 hour in a total volume of 0.5 mL of 50 mM Tris, 5 mM EDTA, pH 7.4. All binding reactions were terminated by filtration under vacuum onto polyethylenimine (0.3%) presoaked Unifilters (PerkinElmer Life Sciences) or Whatman GF/B filters (Whatman, Clifton, N.J.) followed by three brief washes with 4 mL of ice-cold TE buffer. Bound radiolabel was determined by liquid scintillation counting. For all of the radioligand competition binding assays, IC50 values and Hill slopes were determined by Hill transformation of the data and Ki values were determined by the Cheng-Prusoff equation. The following table of representative histamine H4 receptor ligands is provided, along with potency values: […]

Where [3] appears, read: membranes of HEK-293 cells transiently transfected with histamine H4 receptor, [3H]-histamine, 25° C., 1 hour, read-out: Binding assay Potency (Ki).

The structures appear in SMILES notation. Like-named read-outs stand apart in the source and are kept apart here.

T1 sequence (Q9H3N8 whole entry, species assumed): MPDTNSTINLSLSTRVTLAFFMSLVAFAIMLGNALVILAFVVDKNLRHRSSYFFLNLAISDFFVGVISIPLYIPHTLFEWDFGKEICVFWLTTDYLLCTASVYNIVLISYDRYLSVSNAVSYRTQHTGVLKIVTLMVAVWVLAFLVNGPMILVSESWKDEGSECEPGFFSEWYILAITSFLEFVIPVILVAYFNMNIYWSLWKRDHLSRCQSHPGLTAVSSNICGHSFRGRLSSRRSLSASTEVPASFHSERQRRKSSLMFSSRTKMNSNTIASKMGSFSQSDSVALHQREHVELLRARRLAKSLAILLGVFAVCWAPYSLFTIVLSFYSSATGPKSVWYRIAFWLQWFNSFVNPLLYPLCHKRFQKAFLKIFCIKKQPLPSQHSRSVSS

In test [1], `CNC1CN(c2nc(N)nc3c2CC[C@@H]2CCCC[C@H]32)C1` (relative stereo) [Example 22, cis-4-[3-(methylamino)azetidin-1-yl]-5,6,6a,7,8,9,10,10a-octahydrobenzo[h]quinazolin-2-amine] yielded a Potency of 3.0 nM. On the same count and under the same terms, next, `Nc1nc(N2C[C@H]3CNC[C@H]32)c2ccc3c(c2n1)C1CCCCC1O3` (stereo partly drawn) [Example 8, 4-[(1R,5S)-3,6-diazabicyclo[3.2.0]hept-6-yl]-7a,8,9,10,11,11a-hexahydro[1]benzofuro[2,3-h]quinazolin-2-amine]: 61.7 nM; `CCNC1CN(c2nc(N)nc3c2CC[C@@H]2CCCC[C@H]32)C1` (relative stereo) [Example 23, cis-4-[3-(ethylamino)azetidin-1-yl]-5,6,6a,7,8,9,10,10a-octahydrobenzo[h]quinazolin-2-amine]: 3.0 nM. For `CNC1CN(c2nc(N)nc3c2CC[C@@H]2CCCC[C@@H]32)C1.O=C(O)C(F)(F)F.O=C(O)C(F)(F)F` (relative stereo) [Example 14, trans-4-[3-(methylamino)azetidin-1-yl]-5,6,6a,7,8,9,10,10a-octahydrobenzo[h]quinazolin-2-amine bis(trifluoroacetate)], the Ki in test [2] (setting [3]) is 0.9 nM. For the same compound, in test [1], the Potency was 1.5 nM. In test [2], `Nc1nc2c(c(N3CC4CCCNC4C3)n1)CCC1CCCCC21` (stereo not drawn) [Example 18, trans-4-[cis-octahydro-6H-pyrrolo[3,4-b]pyridin-6-yl]-5,6,6a7,8,9,10,10a-octahydrobenzo[h]quinazolin-2-amine] had a Ki of 2.6 nM. The compound further registered a Potency in test [1] of 4.9 nM. As to `Nc1nc2c(c(N3CCNCC3)n1)CC[C@@H]1CCCC[C@@H]21` (relative stereo) [Example 12, trans-4-piperazin-1-yl-5,6,6a,7,8,9,10,10a-octahydrobenzo[h]quinazolin-2-amine], the Ki in test [2] (setting [3]) was determined as 2 nM. The Potency in test [1] is given as 6.9 nM. On to `CN[C@@H]1CCN(c2nc(N)nc3c2CCCC2C4C=CC(CC4)C32)C1` (stereo partly drawn) [Example 25, 4-[(3R)-3-(methylamino)pyrrolidin-1-yl]-6,7,7a,8,11,11a-hexahydro-5H-8,11-ethanobenzo[6,7]cyclohepta[1,2-d]pyrimidin-2-amine], for which the Ki in test [2] (setting [3]) was determined as 5.6 nM. The Potency in test [1] came out at 24.0 nM. `Nc1nc2c(c(N3CC[C@@H](N)C3)n1)CC[C@@H]1CCCC[C@@H]21` (mixture of isomers) [Example 17, trans-4-[(3R)-3-aminopyrrolidin-1-yl]-5,6,6a,7,8,9,10,10a-octahydrobenzo[h]quinazolin-2-amine] returned a Potency in test [1] of 1.2 nM. On the same count and under the same terms, the figure for `CN1CCCN(c2nc(N)nc3c2CCC2=C3C3CCCCC3O2)CC1` (centres unmarked) [Example 5, 4-(4-methyl-1,4-diazepan-1-yl)-5,6,7a,8,9,10,11,11a-octahydro[1]benzofuro[2,3-h]quinazolin-2-amine] is 16 nM. With `Nc1nc2c(c(N3CCNCC3)n1)CC[C@@H]1CCCC[C@H]21` (relative stereo) [Example 13, cis-4-piperazin-1-yl-5,6,6a,7,8,9,10,10a-octahydrobenzo[h]quinazolin-2-amine], the Ki in test [2] (setting [3]) worked out at 1.8 nM. Also, in test [1], the Potency is reported as 3.3 nM. Take `CC(C)N1CCCN(c2nc(N)nc3c2CCC2=C3C3CCCCC3O2)CC1` (centres unmarked) [Example 10, 4-(4-isopropyl-1,4-diazepan-1-yl)-5,6,7a,8,9,10,11,11a-octahydro[1]benzofuro[2,3-h]quinazolin-2-amine]: the Potency in test [1] was 1260 nM. Regarding `Nc1nc2c(c(N3CC[C@@H](N)C3)n1)CC[C@@H]1CCCC[C@H]21` (mixture of isomers) [Example 20, cis-4-[(3R)-3-aminopyrrolidin-1-yl]-5,6,6a,7,8,9,10,10a-octahydrobenzo[h]quinazolin-2-amine], in test [1], the Potency was 1.4 nM.

As for `CN[C@@H]1CCN(c2nc(N)nc3c2CCCC2C4CCC(CC4)C32)C1` (stereo partly drawn) [Example 28, 4-[(3R)-3-(methylamino)pyrrolidin-1-yl]-6,7,7a,8,9,10,11,11a-octahydro-5H-8,11-ethanobenzo[6,7]cyclohepta[1,2-d]pyrimidin-2-amine], the Ki in test [2] (setting [3]) is 5.5 nM. In test [1], the Potency worked out at 21.9 nM. For `CN[C@@H]1CCN(c2nc(N)nc3c2CC[C@@H]2CCCC[C@H]32)C1` (mixture of isomers) [Example 19, cis-4-[(3R)-3-(methylamino)pyrrolidin-1-yl]-5,6,6a,7,8,9,10,10a-octahydrobenzo[h]quinazolin-2-amine], the Potency in test [1] turned out to be 1.6 nM. On the same count and under the same terms, the figure for `Nc1nc2c(c(N3C[C@H]4CCCN[C@H]4C3)n1)CCCC1C3C=CC(CC3)C21` (relative stereo) [Example 24, 4-cis-octahydro-6H-pyrrolo[3,4-b]pyridin-6-yl-6,7,7a,8,11,11a-hexahydro-5H-8,11-ethanobenzo[6,7]cyclohepta[1,2-d]pyrimidin-2-amine] is 91.2 nM.

In the case of `Nc1nc(N2CC[C@@H](N)C2)c2ccc3c(c2n1)C1CCCCC1O3` (stereo partly drawn) [Example 7, 4-[(3R)-3-aminopyrrolidin-1-yl]-7a,8,9,10,11,11a-hexahydro[1]benzofuro[2,3-h]quinazolin-2-amine], the Ki in test [2] (setting [3]) stood at 12.6 nM. The compound further yielded a Potency in test [1] of 4.1 nM. Turning to `Nc1nc2c(c(N3CCCNCC3)n1)CCC1=C2C2CCCCC2O1` (centres unmarked) [Example 9, 4-(1,4-diazepan-1-yl)-5,6,7a8,9,10,11,11a-octahydro[1]benzofuro[2,3-h]quinazolin-2-amine], the Potency in test [1] was 16 nM. On the same count and under the same terms, the figure for `Nc1nc2c(c(N3C[C@H]4CCCN[C@H]4C3)n1)CC[C@@H]1CCCC[C@H]21` (relative stereo) [Example 21, cis-4-[cis-octahydro-6H-pyrrolo[3,4-b]pyridin-6-yl]-5,6,6a,7,8,9,10,10a-octahydrobenzo[h]quinazolin-2-amine] is 8.3 nM; for `Nc1nc2c(c(N3C[C@H]4CCCN[C@H]4C3)n1)CCCC1C3CCC(CC3)C21` (relative stereo) [Example 27, 4-cis-octahydro-6H-pyrrolo[3,4-b]pyridin-6-yl-6,7,7a,8,9,10,11,11a-octahydro-5H-8,11-ethanobenzo[6,7]cyclohepta[1,2-d]pyrimidin-2-amine] it is 89.1 nM. Still for that read-out and setting: next, `CN1CCN(c2nc(N)nc3c2CCC2=C3C3CCCCC3O2)CC1` (centres unmarked) [Example 6, 4-(4-methylpiperazin-1-yl)-5,6,7a,8,9,10,11,11a-octahydro[1]benzofuro[2,3-h]quinazolin-2-amine]: 25 nM.

Compound `Nc1nc2c(c(N3CCCN(C4CCC4)CC3)n1)CCC1=C2C2CCCCC2O1` (centres unmarked) [Example 11, 4-(4-cyclobutyl-1,4-diazepan-1-yl)-5,6,7a,8,9,10,11,11a-octahydro[1]benzofuro[2,3-h]quinazolin-2-amine] returned a Potency in test [1] of 2000 nM.

Take `Nc1nc2c(c(N3CCNCC3)n1)CCCC1C3C=CC(CC3)C21` (centres unmarked) [Example 26, 4-piperazin-1-yl-6,7,7a,8,11,11a-hexahydro-5H-8,11-ethanobenzo[6,7]cyclohepta[1,2-d]pyrimidin-2-amine]: the Potency in test [1] is given as 60.3 nM.
